From article PMC6437697 (Journal of Medicinal Chemistry, 2019)

What was measured:
Test in all cases: KINOMEscan
Assay type in all cases: binding
Conditions in all cases: read-out: % control activity remaining
[1] = target: T1, CDKL5 (Homo sapiens, UniProt O76039)
T1 construct: purchased Eurofins DiscoverX KINOMEscan
T1 sequence (O76039 1-960): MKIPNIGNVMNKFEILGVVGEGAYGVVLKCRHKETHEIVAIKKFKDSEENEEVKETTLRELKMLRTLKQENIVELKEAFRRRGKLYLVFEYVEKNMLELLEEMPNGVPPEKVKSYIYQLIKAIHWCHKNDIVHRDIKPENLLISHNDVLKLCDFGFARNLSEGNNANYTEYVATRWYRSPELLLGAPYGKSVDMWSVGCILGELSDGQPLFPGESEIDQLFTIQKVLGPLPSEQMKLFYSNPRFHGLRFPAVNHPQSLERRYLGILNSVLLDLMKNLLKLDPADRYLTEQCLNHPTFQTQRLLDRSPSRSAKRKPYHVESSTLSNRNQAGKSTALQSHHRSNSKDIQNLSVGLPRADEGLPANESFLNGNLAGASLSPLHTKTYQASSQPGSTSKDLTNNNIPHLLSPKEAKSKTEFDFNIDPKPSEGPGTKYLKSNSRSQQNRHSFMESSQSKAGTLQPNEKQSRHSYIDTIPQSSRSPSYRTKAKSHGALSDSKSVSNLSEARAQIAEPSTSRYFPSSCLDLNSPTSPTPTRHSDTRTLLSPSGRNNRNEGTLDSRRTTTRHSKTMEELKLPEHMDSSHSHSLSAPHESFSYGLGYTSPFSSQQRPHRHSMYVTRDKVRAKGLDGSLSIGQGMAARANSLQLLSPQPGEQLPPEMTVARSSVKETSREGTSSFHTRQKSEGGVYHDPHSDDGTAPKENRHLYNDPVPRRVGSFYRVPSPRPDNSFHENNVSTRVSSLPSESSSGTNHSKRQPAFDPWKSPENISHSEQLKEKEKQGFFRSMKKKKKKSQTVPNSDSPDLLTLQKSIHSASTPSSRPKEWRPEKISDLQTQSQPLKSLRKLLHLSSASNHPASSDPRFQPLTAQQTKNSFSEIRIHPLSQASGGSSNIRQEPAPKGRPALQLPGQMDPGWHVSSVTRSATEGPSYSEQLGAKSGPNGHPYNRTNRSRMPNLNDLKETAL

[2] = target: T2, GCN2(Kin.Dom.2,S808G) (Homo sapiens, UniProt Q9P2K8, S808G)
T2 construct: GCN2(Kin.Dom.2,S808G); purchased Eurofins DiscoverX KINOMEscan
T2 sequence (Q9P2K8 590-1001 S808G limits assumed): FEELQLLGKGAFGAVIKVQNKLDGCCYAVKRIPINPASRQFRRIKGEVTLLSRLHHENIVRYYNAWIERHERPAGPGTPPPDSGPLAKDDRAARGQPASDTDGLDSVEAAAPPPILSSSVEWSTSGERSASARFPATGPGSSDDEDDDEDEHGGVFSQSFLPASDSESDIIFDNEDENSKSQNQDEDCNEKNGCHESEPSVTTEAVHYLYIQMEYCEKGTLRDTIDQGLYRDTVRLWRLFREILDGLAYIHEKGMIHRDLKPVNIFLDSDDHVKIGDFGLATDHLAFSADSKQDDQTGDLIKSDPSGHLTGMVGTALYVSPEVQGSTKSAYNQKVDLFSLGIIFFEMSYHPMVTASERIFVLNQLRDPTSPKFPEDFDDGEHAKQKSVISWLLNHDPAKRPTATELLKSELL

[3] = target: T3, MARK1 (Homo sapiens, UniProt Q9P0L2)
T3 construct: purchased Eurofins DiscoverX KINOMEscan
T3 sequence (Q9P0L2 whole entry): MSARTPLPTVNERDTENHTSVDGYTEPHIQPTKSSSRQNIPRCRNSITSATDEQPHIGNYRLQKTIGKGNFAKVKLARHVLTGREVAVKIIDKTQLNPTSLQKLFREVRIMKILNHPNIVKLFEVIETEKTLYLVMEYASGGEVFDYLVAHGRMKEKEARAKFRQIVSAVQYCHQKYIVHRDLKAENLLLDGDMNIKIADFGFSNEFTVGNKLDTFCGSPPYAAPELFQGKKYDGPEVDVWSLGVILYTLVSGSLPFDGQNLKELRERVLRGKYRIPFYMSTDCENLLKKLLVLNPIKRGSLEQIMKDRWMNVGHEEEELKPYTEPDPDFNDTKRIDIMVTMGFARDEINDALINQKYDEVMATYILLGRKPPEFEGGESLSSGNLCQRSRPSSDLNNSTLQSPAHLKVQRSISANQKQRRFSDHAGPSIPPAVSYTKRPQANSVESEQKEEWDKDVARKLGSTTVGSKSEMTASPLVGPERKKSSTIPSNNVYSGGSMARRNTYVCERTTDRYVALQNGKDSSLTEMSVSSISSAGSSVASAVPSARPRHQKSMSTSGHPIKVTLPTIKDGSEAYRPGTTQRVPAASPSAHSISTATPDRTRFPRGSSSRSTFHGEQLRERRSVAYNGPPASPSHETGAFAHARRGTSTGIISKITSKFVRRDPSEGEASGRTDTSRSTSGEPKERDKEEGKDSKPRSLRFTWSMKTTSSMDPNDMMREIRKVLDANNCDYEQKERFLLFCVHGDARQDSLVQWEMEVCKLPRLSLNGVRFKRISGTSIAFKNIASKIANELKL

[4] = target: T4, CSK (Homo sapiens, UniProt P41240)
T4 construct: purchased Eurofins DiscoverX KINOMEscan
T4 sequence (P41240 whole entry): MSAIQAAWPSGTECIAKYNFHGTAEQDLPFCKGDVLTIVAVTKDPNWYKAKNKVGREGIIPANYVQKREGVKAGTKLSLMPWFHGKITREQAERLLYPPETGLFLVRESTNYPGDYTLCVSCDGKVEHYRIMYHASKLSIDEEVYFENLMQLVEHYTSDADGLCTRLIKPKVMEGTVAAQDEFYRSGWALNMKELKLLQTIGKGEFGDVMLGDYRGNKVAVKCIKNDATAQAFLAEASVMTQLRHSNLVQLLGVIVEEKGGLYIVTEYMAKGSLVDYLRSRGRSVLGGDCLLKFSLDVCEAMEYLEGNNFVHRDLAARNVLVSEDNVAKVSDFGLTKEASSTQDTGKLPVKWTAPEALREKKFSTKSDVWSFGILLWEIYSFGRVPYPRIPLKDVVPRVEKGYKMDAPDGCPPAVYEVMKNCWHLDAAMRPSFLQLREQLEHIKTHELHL

[5] = target: T5, AXL (Homo sapiens, UniProt P30530)
T5 construct: purchased Eurofins DiscoverX KINOMEscan
T5 sequence (P30530 26-894): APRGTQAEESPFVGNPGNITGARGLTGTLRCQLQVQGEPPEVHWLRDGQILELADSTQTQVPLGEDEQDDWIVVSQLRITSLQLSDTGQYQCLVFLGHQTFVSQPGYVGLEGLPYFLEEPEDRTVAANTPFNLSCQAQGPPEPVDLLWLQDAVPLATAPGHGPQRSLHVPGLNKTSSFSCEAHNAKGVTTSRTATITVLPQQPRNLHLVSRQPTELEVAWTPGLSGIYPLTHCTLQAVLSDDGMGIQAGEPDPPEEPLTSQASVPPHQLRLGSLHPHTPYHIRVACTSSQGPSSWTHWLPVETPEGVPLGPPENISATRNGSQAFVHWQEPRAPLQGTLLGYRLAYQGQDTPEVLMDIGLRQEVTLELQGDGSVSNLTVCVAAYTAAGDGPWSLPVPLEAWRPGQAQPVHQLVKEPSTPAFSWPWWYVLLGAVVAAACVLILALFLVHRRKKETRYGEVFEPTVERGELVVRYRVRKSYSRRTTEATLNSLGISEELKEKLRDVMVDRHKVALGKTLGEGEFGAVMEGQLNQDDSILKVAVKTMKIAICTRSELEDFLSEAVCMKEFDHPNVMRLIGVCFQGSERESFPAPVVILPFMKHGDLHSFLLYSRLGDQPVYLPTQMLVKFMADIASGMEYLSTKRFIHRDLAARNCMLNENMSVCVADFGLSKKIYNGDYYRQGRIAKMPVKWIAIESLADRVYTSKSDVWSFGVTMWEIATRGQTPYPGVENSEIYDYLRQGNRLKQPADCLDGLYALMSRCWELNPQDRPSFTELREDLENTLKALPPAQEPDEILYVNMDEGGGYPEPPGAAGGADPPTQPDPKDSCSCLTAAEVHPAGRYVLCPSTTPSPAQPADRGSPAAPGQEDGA

SMILES | remaining binding at 1 µM [1] | remaining binding at 1 µM [2] | remaining binding at 1 µM [3] | remaining binding at 1 µM [4] | remaining binding at 1 µM [5]
Clc1cc(NCC2CC2)c2ncc(-c3ccc4[nH]ncc4c3)n2n1 [compound 2, 6-Chloro-N-(cyclopropylmethyl)-3-(1H-indazol-5-yl)imidazo[1,2-b]pyridazin-8-amine] | 100% | 93% | 86% | 100% | 84%
O=C(CN1CCOCC1)N[C@H]1CC[C@H](Nc2cc(Cl)nn3c(-c4ccc5[nH]ncc5c4)cnc23)CC1 [compound 26] | 46% | 97% | 94% | 94% | 88%
CN1CCC(CNc2cc(Cl)nn3c(-c4cc5nc(Nc6ccccc6)[nH]c5cc4F)cnc23)CC1 [compound 31, 6-Chloro-3-(6-fluoro-2-(phenylamino)-1H-benzo[d]imidazol-5-yl)-N-((1-methylpiperidin-4-yl)methyl)imidazo[1,2-b]pyridazin-8-amine] | 96% | 77% | 94% | 98% | 99%
